pKi: −log10 of the molar value.
How the values were obtained:
human serum LDHk = assay: Inhibition of serum LDHk (gel lanes stained in presence of inhibitor); format: biochemical; settings: 3×10^-5 M in staining mixture, 4 1/2 hours
Description: A reverse polarity gel system was used to isolate the LDHk isozyme which has a positive charge at pH 8.9 and migrates towards the cathode. The gel system was based on an imidazole/borate buffer system. The samples were analyzed on 3 mm thick, 20 well, 5.5% polyacrylamide slab gels photopolymerized with a riboflavin catalyst in the absence of persulfate. The gels were cast with a 0.15M potassium tetraborate buffer at pH 8.3. The lower reservoir buffer was 0.10M potassium tetraborate, pH 8.3, and the upper reservoir buffer contained 0.08M imidazole and 0.02M boric acid, pH 8.9. Gels were run an average of 16 hours at a voltage of 220 V, with cooling provided by circulating ice water.
Staining was done using the nitroblue tetrazolium/phenazine methosulfate composition of Dietz and Lubrano as described previously using 1M Tris buffer, pH 8.0. The staining mixture was supplemented with 2% glycerol to complex with the borate ions. These gels were stained in the dar at a temperature of about 37° C. for 41/2 hours in an Ehrlenmeyer suction flask under a nitrogen atmosphere. After staining, the gels were fixed, scanned to measure the amount of stain, and stored as described above.
An inhibition experiment was conducted on the serum LDHk. […]

LDHk [1] = settings: background description of the isozyme; cited from earlier work
LDHk [2] = assay: Inhibition of LDHk by dinucleoside tetraphosphates; format: biochemical; settings: for Mode of inhibition of LDHk versus NAD+: competition with NAD+; for pKi: property shared by LDHk from cells transformed by Ki-MSV, human tumors, human liver, rat retina
[3] = system: LDHk detected in human tumor tissues; settings: Anderson et al. 1981 study of human carcinomas; cited from earlier work

Row | Structure (SMILES) | Inhibition of human serum LDHk activity (human serum LDHk) | Inhibition of LDHk (LDHk [1]) | Mode of inhibition of LDHk versus NAD+ (LDHk [2]) | pKi (LDHk [2]) | Inhibition of LDHk of human tumor tissues [3]
1 | Nc1ncnc2c1ncn2[C@@H]1O[C@H](COP(=O)(O)OP(=O)(O)OP(=O)(O)OP(=O)(O)OC[C@H]2O[C@@H](n3cnc4c(N)ncnc43)[C@H](O)[C@@H]2O)[C@@H](O)[C@H]1O [diadenosine tetraphosphate, 5',5' diadenosine tetraphosphate] | not inhibited | more strongly | not competitive | ~4.30 | 
2 | Nc1nc2c(ncn2[C@@H]2O[C@H](COP(=O)(O)OP(=O)(O)OP(=O)(O)OP(=O)(O)OC[C@H]3O[C@@H](n4cnc5c(=O)[nH]c(N)nc54)[C@H](O)[C@@H]3O)[C@@H](O)[C@H]2O)c(=O)[nH]1 [diguanosine tetraphosphate, 5',5' diguanosine tetraphosphate] |  | more strongly | not competitive | ~4.30 | 
3 | Nc1nc2c(ncn2[C@@H]2O[C@H](COP(=O)(O)OP(=O)(O)OP(=O)(O)O)[C@@H](O)[C@H]2O)c(=O)[nH]1 [GTP, guanosine triphosphate] |  | inhibited |  |  | inhibited

From patent US4558007A, “Process for detecting LDHk isozyme activity in human serum for use as a diagnostic aid and for monitoring response to cancer therapy” (Health Research, Inc. (Roswell Park Divison), priority 1983, dated 1985)
